Reference: ChEMBL document CHEMBL3632462, “Synthesis and evaluation of phenoxymethylbenzamide analogues as anti-trypanosomal agents” (Medchemcomm, 2015)

Experiments:
[1] = system: Trypanosoma brucei brucei; assay: Antitrypanosomal activity against Trypanosoma brucei brucei infected in HEK293 cells assessed as growth inhibition after 72 hrs by Alamar Blue assay; type: functional, organism-based; details: HEK293, 72 h
[2] = Selectivity index, ratio of IC50 for HEK293 cells to IC50 for Trypanosoma brucei brucei infected in HEK293 cells; type: toxicity, cell-based; details: human, read-out: Ratio IC50
[3] = system: Trypanosoma brucei rhodesiense; assay: Antitrypanosomal activity against bloodstream form of Trypanosoma brucei rhodesiense STIB900 assessed as growth inhibition after 70 hrs by resazurin dye-based fluorometric analysis; type: functional, organism-based; details: STIB900, 70 h
Trypanosoma cruzi = assay: Antitrypanosomal activity against […] of Trypanosoma cruzi Tulahuen C2C4 infected in rat L6 cells assessed as growth inhibition after 96 hrs by beta-galactosidase reporter gene assay; type: functional, organism-based; details: Tulahuen C2C4, L6, 96 h
Leishmania donovani = assay: Antiparasitic activity against amastigote form of Leishmania donovani MHOM/ET/67/L82 assessed as growth inhibition after 70 hrs by resazurin dye-based fluorometric analysis; type: functional, organism-based; details: MHOM/ET/67/L82, 70 h
Plasmodium falciparum = assay: Antiparasitic activity against erythrocytic stage of Plasmodium falciparum NF54 assessed as growth inhibition after 48 hrs by [3H]-hypoxanthine incorporation assay; type: functional, organism-based
L6 = assay: Cytotoxicity against rat L6 cells after 70 hrs by resazurin dye-based fluorometric analysis; type: cell-based; details: L6, 70 h
[4] = Selectivity index, ratio of IC50 for rat L6 cells to IC50 for bloodstream form of Trypanosoma brucei rhodesiense STIB900; type: toxicity, cell-based; details: read-out: Ratio IC50

Compound	IC50 [1] [µM]	selectivity ratio [2]	other results
Cc1ccc(OCc2ccc(C(=O)N3CCCCC3C)cc2)cc1 (stereo not given)	9.2	9	–
CCOc1ccc(NCc2ccc(C(=O)N3CCOCC3)cc2)cc1	20.6	4	–
CCOc1ccc(OCc2ccc(C(=O)N3CCOCC3)cc2)cc1	4.2	20	–
CCOc1ccc(OCc2ccc(C(=O)NC(C)C)cc2)cc1	> 50	–	–
CCc1ccc(OCc2ccc(C(=O)N3CCN(C)CC3)cc2)cc1	> 50	–	–
CCOc1ccc(OCc2ccc(C(=O)N3CCC(C)CC3)cc2)cc1	> 50	–	–
CCOc1ccc(NCc2ccc(C(=O)N3CCCCC3)cc2)cc1	2.9	29	–
CCc1ccc(OCc2ccc(C(=O)N3CCC(C)CC3)cc2)cc1	> 50	–	–
CCOc1ccc(OCCCCCC(=O)N2CCCCC2C)cc1 (stereo not given)	1.66	50	–
COc1ccc(OCc2ccc(C(=O)N3CCN(C)CC3)cc2)cc1	> 50	–	–
Cc1ccc(OCc2ccc(C(=O)N3CCC(C)CC3)cc2)cc1	> 50	–	–
CCOc1ccc(OCc2ccc(C(=O)N3CCCC(C)C3)cc2)cc1 (stereo not given)	1.15	36	IC50 [3]: 0.985 µM; IC50 (Trypanosoma cruzi): 107 µM; IC50 (Leishmania donovani): 35.7 µM; IC50 (Plasmodium falciparum): 22.3 µM; IC50 (L6): 186 µM; selectivity ratio [4]: 190
O=C(Cn1ccnc1[N+](=O)[O-])NCc1ccccc1 [BENZNIDAZOLE]	–	–	IC50 (Trypanosoma cruzi): 2.33 µM
COc1ccc(OCc2ccc(C(=O)N3CCC(C)CC3)cc2)cc1	> 50	–	–
CCOc1ccc(OCc2ccc(C(=O)O)cc2)cc1	> 50	–	–
COc1ccc(OCc2ccc(C(=O)N(C)c3ccccc3)cc2)cc1	18	5	–
CCOc1ccc(OCCCCCC(=O)N(C(C)C)C(C)C)cc1	2.03	41	–
CCOc1ccc(OCCCCCC(=O)N2CCCCC2)cc1	7.35	5	–
CCCCCCCCCCCCCCCCOP(=O)([O-])OCC[N+](C)(C)C [MILTEFOSINE]	–	–	IC50 (Leishmania donovani): 0.572 µM
CCOc1ccc(OCc2ccc(C(=O)N3CCN(C)CC3)cc2)cc1	> 50	–	–
CCCc1ccc(OCc2ccc(C(=O)N3CCCC(C)C3)cc2)cc1 (stereo not given)	> 50	–	–
CCc1ccc(OCc2ccc(C(=O)N3CCOCC3)cc2)cc1	14.8	6	–
CCCc1ccc(OCc2ccc(C(=O)N3CCCCC3C)cc2)cc1 (stereo not given)	10	8	–
